Test results reported in patent publication US20260115312A1, “Conjugates for neuroretinal drug delivery” (Mireca Medicines GmbH, priority 2022, published 2026).

Assays:
MCT2 = conditions: cited from earlier work
[1] = test system: photoreceptors in rd1 retinal explant cultures; assay: TUNEL assay of dying photoreceptors in rd1 organotypic retinal explant cultures; assay type: cell-based, mouse; conditions: free drug solution, 160 μM in 20 μL, final 3.14 μM, P7-P11
Description: FIG. 3A—Treatment of organotypic retinal explant cultures derived from the rd1 mouse model. Retinas were cultured at P5 and treated with either liposome-encapsulated or non-encapsulated (free) neuroprotective drugs (CN03 or CN04) from P7-P11. Assuming an equal distribution across the entire culturing medium, the final drug concentration was 3.14 μM for all treatments. The amount of dying photoreceptors in tissue sections from cultures under various treatment conditions was assessed using the TUNEL assay. DAPI was used to distinguish the outer nuclear layer (ONL). INL=inner nuclear layer. Scale bar 50 μm.
FIG. 3B—As for 3A, shown are percentages of dying (TUNEL+) cells in the ONL. Under non-treated (NT) conditions, the number of TUNEL+ cells are high in the rd1 model. Administration of free CN03 or CN04 had no significant effect on cell death. […]
(§1) Retinas derived from the rd1 or rd10 mouse models were cultured following the protocol described above and treated with the drugs CN03 or CN04. […] 11 z-stacks 1 μm apart were recorded, and from the projected images, the number of TUNEL-positive cells in the outer nuclear layer was manually counted. For the rd10 derived cultures, the average number of photoreceptor rows residing in the outer nuclear layer was counted from microscopy images, using the same imaging method. […]

[2] = test system: photoreceptors in rd10 retinal explant cultures; assay: Remaining photoreceptor rows in rd10 organotypic retinal explant cultures; assay type: cell-based, mouse; conditions: treated P11 until P17 or P24, DSPC-containing liposomes, same drug concentration
Description: FIG. 4A—Treatment of organotypic retinal explant cultures derived from the rd10 mice model. Retinas were cultured at P9 and treated from P11 until either P17 or P24 with free neuroprotective CN03 or with CN03 encapsulated in pyruvate-liposomes (Lp-Pyr/CN03). Representative images of retinal explant culture sections at P17 and P24. DAPI used as nuclear stain. ONL=outer nuclear layer, INL=inner nuclear layer.
FIG. 4B—As for 4A, shown is the number of remaining photoreceptor rows in the tissue sections. NT and CN03 substantially overlap. Results represent mean±SD. At P17: n=4-6. At P24: n=4-5. **=p≤0.01 between the Lp-Pyr/CN03 and CN03 or NT group. Statistical analysis: Two-way ANOVA with Tukey's multiple comparison test. Scale bar 50 μm.
as §1, with “CN04. A treatment was done by applying a 20 μL solution containing 160 μM drug (either loaded in liposomes or in a free solution) to the top of the cultures.” for “CN04.”

[3] = In vitro drug release from liposomes; assay type: physicochemical; conditions: liposomes according to the invention, in vitro set-up
Description: Complete release of CN04 from liposomes according to the invention was shown in an in vitro set-up within 48 h. The release rate for CN03 and CN04 can be lowered by precipitation within the liposome cavity with a specific salt using a remote loading technique similar to what has been done for liposomal doxorubicin formulations. CN03 has previously been remote loaded in similar liposomes using calcium acetate salts (Vighi, E., et al., PNAS, 2018, 115(13)).

MCT1 = conditions: cited from earlier work

Cc1n[nH]c(C)c1Cc1sc2c(c1C(=O)N1C[C@H](O)CO1)c(=O)n(C)c(=O)n2CC(C)C [AR-C155858]
Ki (MCT2): < 10 nM

O=c1c2nc(Br)n([C@@H]3O[C@@H]4CO[P@@](=O)(S)O[C@@H]4C3O)c2nc2[nH]c(-c3ccccc3)cn12 (stereo partly drawn) [CN03, Rp-8-Br-PET-cGMPS]
Dying photoreceptors (TUNEL+ cells in ONL) [1]: no significant reduction in dying photoreceptors | Number of remaining photoreceptor rows [2]: did not achieve a rescue effect

O=c1c2nc(Sc3ccc(Cl)cc3)n([C@@H]3O[C@@H]4CO[P@@](=O)(S)O[C@@H]4C3O)c2nc2[nH]c(-c3ccccc3)cn12 (stereo partly drawn) [CN04, Rp-8-pCPT-PET-cGMPS]
Complete release from liposomes (time) [3]: ≤ 48 h | Dying photoreceptors (TUNEL+ cells in ONL) [1]: no significant reduction in dying photoreceptors

Cc1[nH]nc(C(F)(F)F)c1Cc1sc2c(c1C(=O)N1C[C@](C)(O)CO1)c(=O)n(C)c(=O)n2C(C)C [AZD3965]
Ki (MCT1): 1.6 nM
